For 16 molecules, ED50, IC50 and L/H ratio results are on record in patent US20050256103A1, “Indole derivative having piperidine ring” (Eisai Co., Ltd., priority 2004, published 2005).

Structures are written as SMILES. pIC50: −log10 of the molar value. Read-outs that look alike come from different tables or passages of the source.

Experiment [1] addresses T1, serotonin 1A receptor (Mus musculus, UniProt Q64264).
T1 construct: into the rectum of CD-1 (ICR) male mice (25-45 g); from tissue; host or cells: living CD-1 (ICR) male mice (in vivo)
T1 sequence (Q64264 1-421): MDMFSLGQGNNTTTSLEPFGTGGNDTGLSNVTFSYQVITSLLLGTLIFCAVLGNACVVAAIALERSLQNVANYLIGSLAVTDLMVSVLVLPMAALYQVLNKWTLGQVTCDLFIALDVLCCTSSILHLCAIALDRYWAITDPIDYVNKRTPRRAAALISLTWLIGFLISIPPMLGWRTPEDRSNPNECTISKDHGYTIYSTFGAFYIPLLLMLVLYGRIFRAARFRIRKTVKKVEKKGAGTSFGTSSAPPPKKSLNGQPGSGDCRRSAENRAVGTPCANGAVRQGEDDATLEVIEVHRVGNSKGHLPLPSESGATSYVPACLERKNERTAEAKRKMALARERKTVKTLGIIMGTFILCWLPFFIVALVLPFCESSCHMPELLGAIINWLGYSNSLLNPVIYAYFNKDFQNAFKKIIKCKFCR
In words: Antagonistic effect on serotonin 1A receptor agonist (8-OH-DPAT)-induced hypothermia in mouse. The class given is in vivo. The following applies: CD-1 (ICR) male mice; inhibition of hypothermia by 8-OH-DPAT 0.5 mg/kg sc; test substance 15 minutes before agonist. Here is the method:
(1) A thermistor probe was inserted at a depth of approximately 2 cm into the rectum of CD-1 (ICR) male mice (25-45 g), so as to measure the body temperature thereof. Body temperature is decreased by subcutaneous administration of serotonin 1A receptor agonist (8-hydroxy-dipropylaminotetralin (8-OH-DPAT) 0;5 mg/kg. Since a serotonin 1A antagonist inhibits such action, the antagonistic effect of a test substance to a serotonin 1A receptor was evaluated using the inhibitory effect of the hypothermia as an index. The test results are shown in Table 2 indicated below. A test substance was administered 15 minutes before the administration of the serotonin 1A agonist. A serotonin 1A partial agonist alone decreases the body temperature, depending on the degree of the agonistic action thereof. In addition, it has a weak antagonistic effect on 8-OH-DPAT-induced hypothermia.

Experiment [2] concerns the target T2, 5-HT1A receptor (Sus scrofa, UniProt A0A4X1UTF5).
T2 construct: Swine hippocampus was homogenized in a 50 mM Tris-Hcl buffer; from tissue; host or cells: swine hippocampus, membrane fraction
T2 sequence (A0A4X1UTF5 1-422): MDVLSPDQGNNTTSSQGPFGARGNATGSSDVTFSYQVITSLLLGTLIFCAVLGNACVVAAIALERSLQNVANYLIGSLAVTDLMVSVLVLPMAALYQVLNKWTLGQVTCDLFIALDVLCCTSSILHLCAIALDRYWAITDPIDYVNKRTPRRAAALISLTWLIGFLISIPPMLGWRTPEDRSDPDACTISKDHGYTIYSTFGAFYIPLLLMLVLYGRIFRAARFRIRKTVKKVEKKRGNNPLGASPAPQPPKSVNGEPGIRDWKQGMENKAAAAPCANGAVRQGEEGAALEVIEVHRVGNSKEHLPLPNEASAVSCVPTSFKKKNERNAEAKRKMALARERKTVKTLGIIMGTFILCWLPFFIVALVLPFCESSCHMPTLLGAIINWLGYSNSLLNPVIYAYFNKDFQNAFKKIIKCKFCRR
In words: Affinity for serotonin 1A receptor: inhibition of [3H]MPPF binding in swine hippocampal membrane fraction. Particulars: for pIC50: [3H]MPPF 0.5 nM, swine hippocampal membrane, 37°C 30 min; for L/H ratio: low affinity IC50 divided by high affinity IC50, 1 or smaller = no intrinsic activity, 2 or greater = intrinsic activity. An excerpt: (1) The affinity of a test substance for a 5-HT1A receptor was examined by an inhibition experiment, in which the inhibitory effect of the test substance against the binding of [^3H]-4-(2′-methoxy)phenyl-1-(2′-(N-2″-pyridinyl)-p-fluorobenzamido)ethyl-piperazine (MPPF) that selectively binds to the 5-HT1A receptor in a swine hippocampal membrane fraction was examined. The 5-HT1A receptor that is a G-protein binding receptor becomes a G-protein binding state with addition of MgCl2. In contrast, it becomes a G-protein non-binding state with addition of guanylylimido diphosphate (Gpp(NH)p). […] Thus, both the affinity of a test substance to the receptor that was in a state of not binding to the G-protein and the affinity of the test substance to the receptor that was in a state of binding to the G-protein were obtained. Then, the obtained values were compared to each other, so as to estimate the level of the intrinsic activity of the test substance. Theoretically, when the value (L/H) obtained by dividing the affinity of a test substance to the receptor that is in a low affinity state (IC50 value) by the affinity of a test substance to the receptor that is in a high affinity state (IC50 value) is 1 or less, the intrinsic activity thereof is zero. The greater this value, the higher the intrinsic activity that can be obtained.
Swine hippocampus was homogenized in a 50 mM Tris-Hcl buffer (pH 7.4; hereinafter referred to as buffer A) that had been cooled on ice. The suspension was centrifuged at 40,000×g for 15 minutes. The obtained pellet was suspended in buffer solution A, and the thus obtained solution was then centrifuged at 40,000×g for 15 minutes. The same operation was repeated 2 or 3 times. The finally obtained pellet was suspended in a buffer solution A in an amount 10 times the wet weight of the swine hippocampus, so as to obtain a membrane fraction. The obtained membrane fraction was stored at −80° C. until use.
A mixture (0.5 ml) used for incubation comprised an appropriate amount of the membrane fraction, a test substance with a desired concentration, MgCl2 (final concentration: 10 mM) or Gpp(NH)p (final concentration: 1 mM), [^3H]MPPF (final concentration: 0.5 nM), dimethyl sulfoxide (final concentration: 1% (v/v)), and a 50 mM Tris-Hcl buffer (pH 7.4). The reaction was initiated with addition of the membrane fraction, and the mixture was incubated at 37° C. for 30 minutes. After completion of the incubation, the mixture was subjected to vacuum filtration with a glass filter, using Cell Harvester. The filter was washed with buffer solution A that had been cooled on ice. Thereafter, radioactivity binding to the receptor was measured with a liquid scintillation counter. Non-specific binding was defined as binding detected in the presence of 10 μM WAY-100,635.

[3] abbreviates: receptor in high affinity (G-protein binding, MgCl2 10 mM) state, read-out: High affinity IC50.
Setting [4] is: receptor in low affinity (G-protein non-binding, Gpp(NH)p 1 mM) state, read-out: Low affinity IC50.

Regarding `CNC(=O)c1ccc2ccn(C3CCN(CCc4cc5c(cc4OC)CCC(=O)N5C)CC3)c2c1` [Compound 58, 1-{1-[2-(6-methoxy-1-methyl-2-oxo-1,2,3,4-tetrahydroquinolin-7-yl)ethyl]piperidin-4-yl}-N-methyl-1H-indole-6-carboxamide], in experiment [1], the ED50 was 0.53 mg/kg, sc. Also, the pIC50 (in general, the IC50 on a negative log10 scale, so that one unit is a factor of ten) was 9.48 in experiment [2] (setting [3]) and 9.41 in experiment [2] (setting [4]). Also, the L/H ratio in experiment [2] is on record as 1.2.

Regarding `COc1ccc2cccnc2c1CCN1CCC(n2ccc3ccc(C(N)=O)cc32)CC1` [Compound 29, 1-{1-[2-(7-methoxyquinolin-8-yl)ethyl]piperidin-4-yl}-1H-indole-6-carboxamide], the pIC50 was 9.47 in experiment [2] (setting [3]) and 9.52 in experiment [2] (setting [4]). Also, the L/H ratio in experiment [2] was 0.9.

Consider `COc1cc2c(cc1CCN1CCC(n3ccc4ccc(C(N)=O)cc43)CC1)C(=O)CCCO2` [Compound 12, 1-{1-[2-(8-methoxy-5-oxo-2,3,4,5-tetrahydrobenzo[b]oxepin-7-yl)ethyl]piperidin-4-yl}-1H-indole-6-carboxamide], for which the pIC50 in experiment [2] (setting [3]) is 9.77; in experiment [2] (setting [4]), 9.80. For the same molecule, the L/H ratio in experiment [2] was determined as 0.9.

For `CNC(=O)c1ccc2ccn(C3CCN(CCc4c(OC)ccc5nc(C)oc45)CC3)c2c1` [Compound 15], the pIC50 in experiment [2] (setting [3]) was 9.14; in experiment [2] (setting [4]), 9.21. Further, the L/H ratio in experiment [2] turned out to be 0.8.

On to `COc1ccc2c(c1CCN1CCC(n3ccc4ccc(C(N)=O)cc43)CC1)CC(C)(C)C2=O` [Compound 14, 1-{1-[2-(5-methoxy-2,2-dimethyl-1-oxoindan-4-yl)ethyl]piperidin-4-yl}-1H-indole-6-carboxamide], for which the values for the pIC50 in experiment [2] (setting [3]) and in experiment [2] (setting [4]) were 9.34 and 9.47, respectively. For the same molecule, in experiment [2], the L/H ratio is 0.7.

As for `COc1cc2c(cc1CCN1CCC(n3ccc4ccc(C(N)=O)cc43)CC1)C(O)CC2` (stereo not drawn) [Compound 50, 1-{l-[2-(3-hydroxy-6-methoxyindan-5-yl)ethyl]piperidin-4-yl}-1H-indole-6-carboxamide], the pIC50 in experiment [2] (setting [3]) and in experiment [2] (setting [4]) was 9.68 each time. Further, the L/H ratio in experiment [2] is given as 1.

For `COc1ccc2c(c1CCN1CCC(n3ccc4ccc(C(N)=O)cc43)CC1)OCC(C)(C)C2=O` [Compound 37, 1-{1-[2-(7-methoxy-3,3-dimethyl-4-oxochroman-8-yl)ethyl]piperidin-4-yl}-1H-indole-6-carboxamide], the pIC50 in experiment [2] (setting [3]) is 9.26; in experiment [2] (setting [4]), 9.41. In experiment [2], the L/H ratio is recorded as 0.7.

With `CNC(=O)c1ccc2ccn(C3CCN(CCc4cc5nc(C)oc5cc4OC)CC3)c2c1` [Compound 16, 1-{1-[2-(6-methoxy-2-methylbenzoxazol-5-yl)ethyl]piperidin-4-yl}-N-methyl-1H-indole-6-carboxamide], the values for the pIC50 in experiment [2] (setting [3]) and in experiment [2] (setting [4]) were 9.74 and 9.77, respectively. Further, the L/H ratio in experiment [2] amounted to 0.9.

Turning to `COc1cc2c(cc1CCN1CCC(n3ccc4ccc(C(N)=O)cc43)CC1)N(C)C(=O)OC2` [Compound 39, 1-{1-[2-(6-methoxy-methyl-oxo-1,4-dihydro-2H-benz[d][1,3]oxazin-7-yl)ethyl]piperidin-4-yl}-1H-indole-6-carboxamide], the pIC50 in experiment [2] (setting [3]) is 9.89; in experiment [2] (setting [4]) it was 10.05.

Consider `CON=C1CCc2c(CCN3CCC(n4ccc5ccc(C(N)=O)cc54)CC3)c(OC)cc(OC)c21` [Compound 11, 1-{1-[2-(5,7-dimethoxy-1-methoxyiminoindan-4-yl)ethyl]piperidin-4-yl}-1H-indole-6-carboxamide], for which the pIC50 in experiment [2] (setting [3]) is 9.66; in experiment [2] (setting [4]), 10.00. Further, in experiment [2], the L/H ratio turned out to be 0.4.

For `COc1ccc2c(c1CCN1CCC(n3ccc4ccc(C(N)=O)cc43)CC1)OC1(CCCC1)CC2=O` [Compound 41, 1-{1-[2-(7-methoxy-4-oxo-spiro(chroman-2,1′-cyclopentan)-8-yl)ethyl]piperidin-4-yl}-1H-indole-6-carboxamide], the pIC50 is 9.70 in experiment [2] (setting [3]) and 9.85 in experiment [2] (setting [4]). Also, in experiment [2], the L/H ratio came to 0.7.

On to `COc1ccc2c(c1CCN1CCC(n3ccc4ccc(C(N)=O)cc43)CC1)OC1(CCOCC1)CC2=O` [Compound 43, 1-{1-[2-(7-methoxy-4-oxo-spiro(chroman-2,4′-oxan)-8-yl)ethyl]piperidin-4-yl}-1H-indole-6-carboxamide], for which the pIC50 in experiment [2] (setting [3]) is 9.66; in experiment [2] (setting [4]), 9.82. For the same molecule, the L/H ratio in experiment [2] came out at 0.7.

Consider `COc1cc2c(cc1CCN1CCC(n3ccc4ccc(C(N)=O)cc43)CC1)NC(=O)CC2` [Compound 56, 1-{1-[2-(6-methoxy-2-oxo-1,2,3,4-tetrahydroquinolin-7-yl)ethyl]piperidin-4-yl}-1H-indole-6-carboxamide], for which the pIC50 in experiment [2] (setting [3]) was 10.15; in experiment [2] (setting [4]) it was 10.40. For the same molecule, the L/H ratio in experiment [2] is recorded as 0.5.

`CON=C1CCCc2c1ccc(OC)c2CCN1CCC(n2ccc3ccc(C(N)=O)cc32)CC1` [Compound 19, 1-{1-[2-(2-methoxy-5-methoxyimino-5,6,7,8-tetrahydronaphthalen-1-yl)ethyl]piperidin-4-yl}-1H-indole-6-carboxamide]: the pIC50 in experiment [2] (setting [3]) is 8.96; in experiment [2] (setting [4]) it was 9.16. Besides, the L/H ratio in experiment [2] was determined as 0.6.

Regarding `COCC1(C)CC(=O)c2ccc(OC)c(CCN3CCC(n4ccc5ccc(C(N)=O)cc54)CC3)c2O1` (stereo not drawn) [Compound 40, 1-{1-[2-(7-methoxy-2-methoxymethyl-2-methyl-4-oxochroman-8-yl)ethyl]piperidin-4-yl}-1-H-indole-6-carboxamide], the pIC50 in experiment [2] (setting [3]) is 9.74; in experiment [2] (setting [4]) it was 9.77. Further, the L/H ratio in experiment [2] was 0.9.

On to `CON=C1CCCOc2cc(OC)c(CCN3CCC(n4ccc5ccc(C(N)=O)cc54)CC3)cc21` [Compound 13, 1-{1-[2-(8-methoxy-5-methoxyimino-2,3,4,5-tetrahydrobenzo[b]oxepin-7-yl)ethyl]piperidin-4-yl}-1H-indole-6-carboxamide], for which the pIC50 in experiment [2] (setting [3]) was 9.49; in experiment [2] (setting [4]) it was 9.66. The L/H ratio in experiment [2] amounted to 0.7.
